Here are results for 1 molecule from patent publication US10780069B2, “Use of GC-1 in transplant related population” (University of Pittsburgh—Of the Commonwealth System of …, priority 2017, dated 2020).

Data set [1] is described as follows: Serum ALT/bilirubin and hepatic histology after GC-1 or T3. Conditions: T3 (4 mg/Kg of diet) or GC-1 (5 mg/Kg of diet) chow 8 days, vs basal diet. It counts as in vivo, mice. Here is the method: (§1) All studies on mice were performed in strict accordance with Guidelines. Eight-week old male C57BL/6 male mice (Jackson/Charles River) were maintained on a standard laboratory basal diet (Test Diet) (n=4), or fed a T3-supplemented diet (4 mg/Kg of diet, Sigma Chemicals, St. Louis Mo.) (n=4). GC-1 was administered to the eight week-old male C57BL/6 male mice either via GC-1-supplemented diet (5 mg/Kg of diet, Medchem Express) for 8 days (n=4) or via daily intraperitoneal injections (IP) of GC-1 dissolved in DMSO (0.3 mg/kg/dose) for 8 days (n=7). As a control group for injections, DMSO alone was injected daily intraperitoneal (IP) for 8 days (n=5). Mice were sacrificed 24 hours after the last injection.

Data set [2] concerns hepatocytes. Kind of data set: T3 or GC-1 in LRP5-6 LKO mice and littermate controls. It counts as in vivo. Here is the method: Eight to 10 week-old LRP5-6-LKO were obtained from breeding homozygous LRP5-6 double floxed mice with albumin-cre transgenic mice as described previously (Yang et al. (2014) Hepatology 60, 964-976). LRP5-6-LKO or sex matched littermate controls were given either T3-supplemented diet (n=4), basal diet (n=3), IP GC-1 (n=3) or IP DMSO (n=3). Mice were sacrificed at 24 hours after the last IP injection.
To label dividing hepatocytes, BrdU (5-bromodeoxyuridine) dissolved in drinking water (1 mg/ml) was given to all animals throughout the experiment period. The animals were given food and water ad libitum with a 12-hour light/dark daily cycle. […]
(§2) Protein extraction from frozen liver tissue and western blot analysis were performed as previously described (Fanti et al., (2014) Hepatology 59, 2309-2320). For protein extraction, a small amount of frozen liver tissue was obtained (over dry ice) and was homogenized using RIPA buffer with protease and phosphatase inhibitor cocktail (Sigma, St. Louis, Mo.). Samples were transferred to a 1.5 ml tube on ice, and spun in cold room centrifuge at 14,000 RPM for 5 minutes. Pellet was then discarded and sample was aliquoted and stored at −80 C for use. Fifty micrograms of the proteins were resolved by sodium dodecyl sulfate-polyacrylamide gel electrophoresis analysis, and transferred to immobilon-polyvinylidene difluoride membranes.
The primary antibodies used were against β-catenin (BD Biosciences); pSer675-β-catenin, pSer552-β-catenin, Active-β-catenin (Cell-Signaling), Cyclin-D1 (Thermo-Scientific), and β-Actin (Sigma). Dilutions of primary antibody were done according to manufacturer recommendations (1:1000 for all except Cyclin-D1 which was 1:200). Horseradish peroxidase-conjugated secondary antibodies used were goat anti-mouse (1:20,000) and goat anti-rabbit (1:10,000) (Millipore). The proteins were detected by Super-Signal West Pico Chemiluminescense Substrate (Thermo Scientific, Rockford Ill.) and visualized by autoradiography. […]

In data set [3] the test system is hepatocytes. Kind of data set: T3- or GC-1-supplemented diet in wild type mice: hepatocyte proliferation. It counts as in vivo. Here is the method:
as §1
(§3) To label dividing hepatocytes, BrdU (5-bromodeoxyuridine) dissolved in drinking water (1 mg/ml) was given to all animals throughout the experiment period. The animals were given food and water ad libitum with a 12-hour light/dark daily cycle.
(§4) Four micron liver sections were analyzed by immunohistochemistry for β-Catenin (BD Biosciences, San Jose, Calif.), Cyclin-D1 (Thermo-Scientific, Fremont, Calif.) and PCNA (Santa Cruz Biotechnology, Dallas, Tex.). Briefly, formalin-fixed sections were deparaffinized in graded xylene and alcohol. Endogenous peroxidase was inactivated using 3% hydrogen peroxide (Sigma). For β-Catenin, Cyclin-D1 staining, slides were microwaved in Citrate buffer followed by blocking with Superblock for 10 minutes. Sections were then incubated with secondary anti-mouse (for β-catenin) or anti-rabbit (for Cyclin-D1) horseradish peroxidase-conjugated antibody for 30 minutes.
(§5) Bromodeoxyuridine (BrdU) was stained with mouse antibody (Becton Dickinson) as previously described (Fanti et al. (2014) Hepatology 59, 2309-2320). Briefly, tissue sections were deparaffinized, exposed to 0.3% hydrogen peroxide in deionized water for 10 minutes to block endogenous peroxidase, treated with 2N HCl, incubated with trypsin 0.1% for 20 minutes and then with normal goat serum for 20 minutes at room temperature. Sections were then incubated overnight in cold room with anti-BrdU monoclonal antibody, followed by biotinylated goat anti-mouse IgG. DAB kit was then applied, and sections were counterstained with hematoxylin. A small segment of intestine was included from each mouse as a positive control for the staining. For quantification of BrdU staining, at least 10 high power fields (400× or 600×) fields each from at least three biological replicates were counted as indicated in the figures. Statistical analysis was performed as described below.

Data set [4] deals with hepatocytes. Put plainly: Partial hepatectomy after pretreatment with T3 or GC-1 supplemented diet. It is filed as in vivo, mice. On the procedure:
as §3
After 7 days of receiving T3 supplemented diet (n=3) or GC-1 diet (n=3) or standard basal mouse chow (n=3), C57BL/6 male mice underwent partial hepatectomy as described previously (Tan et al. (2006) Gastroenterology 131, 1561-1572). Anesthesia was provided with inhaled Isoflurane. The animals were sacrificed 24 hours post hepatectomy, after Isoflurane anesthesia and cervical dislocation. Serum and liver tissue were harvested for further processing.
as §4, §5

In data set [5] the test system is preneoplastic hepatocytes. The settings on record: resistant-hepatocyte model of hepatocarcinogenesis (T3, rats); Ledda-Columbano 2000, Perra 2009; cited from earlier work.
Data set [6] relates to hepatocytes. Put plainly: GC-1 or T3 in hepatocyte specific β-catenin knockout mice (β-Cat LKO) and littermate controls. It is filed as in vivo. Here is the method:
Eight to 10 week old male hepatocyte specific β-catenin knockout mice (β-cat-LKO) or sex-matched littermate controls obtained from breeding homozygous floxed β-catenin mice and albumin-cre transgenic mice (as described elsewhere (Tan et al., (2006) Gastroenterology 131, 1561-1572)) were given 8 daily IP injections of GC-1 (n=4) or DMSO (n=4) and harvested around 24 hours after the last injection.
as §3, §4, §5, §2
The primary antibodies used were against β-catenin (BD Biosciences); pSer675-β-catenin, pSer552-β-catenin, Active-β-catenin (Cell-Signaling), Cyclin-D1 (Thermo-Scientific), and β-Actin (Sigma). Dilutions of primary antibody were done according to manufacturer recommendations (1:1000 for all except Cyclin-D1 which was 1:200). Horseradish peroxidase-conjugated secondary antibodies used were goat anti-mouse (1:20,000) and goat anti-rabbit (1:10,000) (Millipore). The proteins were detected by Super-Signal West Pico Chemiluminescense Substrate (Thermo Scientific, Rockford Ill.) and visualized by autoradiography.
Total RNA was extracted by homogenizing frozen liver tissues in Trizol reagent (Invitrogen, Carlsbad, Calif.) from GC-1-injected β-Cat LKO (n=4) and littermate control mice (n=4); and GC-1-injected LRP5-6 LKO (n=3) and littermate control mice (n=3). […]

The next data set deals with liver regeneration. Conditions: rats; Columbano et al. (2008); cited from earlier work.

The structures appear in SMILES notation.

For the molecule `N[C@@H](Cc1cc(I)c(Oc2ccc(O)c(I)c2)c(I)c1)C(=O)O` [T3, Triiodothyronine], the “histological changes in the livers” value in data set [1] is “no histological changes”. Also, in the data set on hepatocytes [2] (LRP5-6-LKO and littermate controls), the “pSer675-β-catenin levels, Western blot” value was “comparable or even greater levels”. Besides, the “pSer552-β-catenin levels, Western blot” value with hepatocytes [2] (LRP5-6 LKO) is on record as “modest increase”. Also, in the data set on hepatocytes [2] (LRP5-6 LKO after T3 or GC-1 feeding vs basal diet), the “active β-catenin levels” value was “no notable differences”. Moreover, in the data set on hepatocytes [2] (LRP5-6 LKO vs controls), the “cyclin-D1 protein and mRNA expression” value is “decreased”; the “numbers of cyclin-D1-positive hepatocytes (immunohistochemistry)” value is on record as “notably decreased”; the “total β-catenin levels” value was “comparable levels”. Besides, in the data set on hepatocytes [2] (LRP5-6 LKO vs controls, T3 diet 4 mg/Kg of diet or GC-1 0.3 mg/Kg/dose IP 8 days), the “number of BrdU-labeled hepatocyte nuclei” value is “notable decrease”. Further, the “active β-catenin levels in liver lysates” value in the data set with hepatocytes [2] (control mice fed T3 or GC-1 diet for 8 days vs basal diet) was “dramatic increase”. For the same molecule, the BrdU incorporation entry in the data set with hepatocytes [3] (T3 (4 mg/Kg of diet) or GC-1 (5 mg/Kg of diet) chow 8 days, vs basal diet) is recorded as “increased BrdU incorporation”. The “cyclin-D1 staining in hepatocytes” value in the data set on hepatocytes [3] (T3 diet or IP GC-1, 8 days, vs respective controls) is reported as “notably increased cyclin-D1 staining”. Further, in the data set on hepatocytes [3] (T3 or GC-1 supplemented diet 8 days, vs basal diet), the “cyclin-D1 staining in hepatocytes” value is “increased in both groups”. Also, the “BrdU-positive hepatocytes, T3 diet versus IP GC-1” value with hepatocytes [3] (T3 supplemented diet versus IP GC-1, 8 days, p<0.001 between groups) was “highest proliferation”. Further, the “nuclear cyclin-D1 immunohistochemistry at 24 hours after hepatectomy” value with hepatocytes [4] (24 hours after hepatectomy) was “panlobular distribution”. The “hepatocyte proliferative response post hepatectomy, T3 versus GC-1” value in the data set on hepatocytes [4] (24 hours post hepatectomy) is reported as “significantly greater hepatocyte proliferative response than GC-1”. Moreover, in the data set on hepatocytes [4] (diet pretreatment, vs basal diet), the “BrdU positive hepatocyte nuclei at 24 hours after hepatectomy” value was “pronounced increase”. The “increase in hepatocyte proliferation over the 24-hour liver regeneration period” value in the data set with hepatocytes [4] (pre-hepatectomy vs 24 hour-post hepatectomy, same animals, all three mice) is “around 2 fold”. In addition, the “cyclin-D1 immunohistochemistry in resected lobes at time of hepatectomy” value in the data set with hepatocytes [4] (pretreatment livers) is listed as “expansion of cyclin-D1 positive hepatocytes in the midzonal area”. Besides, the “BrdU-positive hepatocytes in resected lobes at time of hepatectomy” value in the data set on hepatocytes [4] (seven-day pretreatment, vs basal diet) is “increased BrdU-positive hepatocytes”. Moreover, the “effect on preneoplastic lesions / carcinogenic process” value in data set [5] is reported as “accelerate remodeling of chemically-induced preneoplastic lesions”. Also, the “active β-catenin, Western blot” value in the data set on hepatocytes [6] (β-Cat LKO after T3 or GC-1 treatment) was “very faint signal”. In the data set on hepatocytes [6] (β-Cat LKO vs controls treated with GC-1 or T3), the “P-Ser675-β-catenin, Western blot” value is “absent”. In the data set with liver regeneration, the “liver regeneration after partial hepatectomy” value is given as “regenerative advantage” and the “survival in a 90% hepatectomy model” value is given as “survival advantage”.
